Patent publication US8722868B2, “Glycosyltransferase, novel glycosyltransferase gene, and novel sugar donor compound” (National University Corporation Tokyo University of …, priority 2009, dated 2014)

Tests used:
[1] = molecular target: T1, crude enzyme obtained from pink petals of a carnation (variety: "Beam Cherry") (glycosyltransferase) (Dianthus caryophyllus, UniProt E3W9M2); test: Relative activity of crude carnation petal enzyme on each sugar donor (glycosyl transfer to cyanidin 3-glucoside, HPLC); assay type: biochemical; settings: crude enzyme 61 μg, cyanidin β-glucoside 200 μM, sugar donor 500 μM, citric acid buffer pH 5.6, 30° C., 15 minutes; HPLC area of cyanidin 3,5-O-β diglucoside
T1 construct: Thus, a crude enzyme liquid was obtained; from tissue; host or cells: pink petals of carnation, variety Beam Cherry (ammonium sulfate precipitate, desalted)
T1 sequence (E3W9M2 31-502): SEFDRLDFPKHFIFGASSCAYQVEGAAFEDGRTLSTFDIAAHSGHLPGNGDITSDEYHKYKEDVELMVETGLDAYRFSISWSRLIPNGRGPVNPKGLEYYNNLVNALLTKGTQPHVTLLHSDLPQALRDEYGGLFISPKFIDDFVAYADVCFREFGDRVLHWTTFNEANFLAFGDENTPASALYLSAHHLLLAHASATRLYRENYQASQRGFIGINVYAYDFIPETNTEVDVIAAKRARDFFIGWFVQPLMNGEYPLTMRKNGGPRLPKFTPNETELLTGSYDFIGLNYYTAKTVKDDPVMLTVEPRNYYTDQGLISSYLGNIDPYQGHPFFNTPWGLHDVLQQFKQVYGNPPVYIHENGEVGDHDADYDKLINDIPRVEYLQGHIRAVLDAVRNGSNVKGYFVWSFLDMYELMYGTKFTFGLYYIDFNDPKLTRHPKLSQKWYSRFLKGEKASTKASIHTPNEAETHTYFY
Procedure: An enzyme reaction was carried out at 30° C. for 15 minutes in a reaction solution obtained by adding a citric acid buffer (pH 5.6) to a crude enzyme obtained from pink petals of a carnation (variety: “Beam Cherry”) (61 μg), cyanidin β-glucoside (200 μM), and a sugar donor (1-O-β-vanillyl glucose extracted from a carnation or any of synthesized 1-O-vanillyl glucose (in the α or β form), 1-O-isovanillyl glucose (in the α or β form), and 1-O-galloyl glucose (in the α or β form)) (500 μM) to a final volume of 30 μl. The reaction was terminated by adding a 20% phosphoric acid aqueous solution to the reaction liquid so as to result in a final phosphoric acid concentration of 1%, followed by centrifugation. The obtained supernatant was subjected to separation using an HPLC (Chromolith Speed ROD; 4.6×50 mm; Merck) with a linear gradient (5 minutes) of 18% to 28% liquid B containing eluent A (a 1.5% phosphoric acid aqueous solution) and eluent B (a 90% methanol aqueous solution) (flow rate: 3.0 ml/min; 520 nm), followed by analysis. The relative activity of the enzyme on each sugar donor was calculated based on the HPLC chromatogram area of a reaction product (cyanidin 3,5-O-β diglucoside) at a wavelength of 505 nm.

[2] = molecular target: T2, enzyme purified from pink petals of a carnation (variety: "Beam Cherry") (glycosyltransferase) (Dianthus caryophyllus, UniProt E3W9M2); test: Relative activity of glycosyltransferase purified from carnation on each sugar donor (HPLC); assay type: biochemical; settings: purified enzyme 135 ng, cyanidin 3-glucoside 200 μM, sugar donor 500 μM, citric acid buffer pH 5.6, 30° C., 15 minutes; HPLC area of cyanidin 3,5-O-β-diglucoside
T2 construct: the enzyme comprising 502 amino acid residues was translated, followed by amino acid removal via processing; from tissue; host or cells: petals of carnation, variety Beam Cherry
T2 sequence (E3W9M2 31-502): T1 sequence (E3W9M2 31-502)
Procedure: An enzyme reaction was carried out at 30° C. for 15 minutes using an enzyme (135 ng) purified from pink petals of a carnation (variety: “Beam Cherry”) by the method described in Example 2 ((1) and (2)), cyanidin 3-glucoside (200 μM), and a sugar donor (1-O-β-D-vanillyl glucose or any of 1-O-β-D-p-coumaryl glucose, 1-O-β-D-caffeyl glucose, 1-O-β-D-feruloyl glucose, and 1-O-β-D-sinapoyl glucose that had been enzymatically synthesized according to the method described in Matsuba Y et al., Plant Biotechnology vol. 25, No. 4 (2008) pp. 369-375) (500 μM) in a reaction solution adjusted to 30 μl with the addition of a citric acid buffer (pH 5.6). A 20% phosphoric acid aqueous solution was added to the reaction liquid so as to result in a final phosphoric acid concentration of 1%. Thus, the reaction was terminated, followed by centrifugation. The resulting supernatant was subjected to separation using a HPLC column (Chromolith SpeedROD, 4.6×50 mm, Merck), eluent A (a 1.5% phosphoric acid aqueous solution), and eluent B (a 90% methanol aqueous solution) with a linear gradient of 18% to 28% liquid B (flow rate: 3.0 ml/min, 520 nm) (5 minutes), followed by analysis. The relative activity of the enzyme on each sugar donor was determined by calculating the area of the reaction product (cyanidin 3,5-O-β-diglucoside) on an HPLC chromatogram at a wavelength of 505 nm.

Row | Molecule | Relative activity of an enzyme on a sugar donor (when synthetic 1-O-β-vanillyl glucose is set as 100) [1] | Relative activity of an enzyme on a sugar donor (when synthetic 1-O-β-vanillyl glucose is set as 100) [2]
1 | O=C(O[C@@H]1O[C@H](CO)[C@@H](O)[C@H](O)[C@H]1O)c1cc(O)c(O)c(O)c1 [1-O-β-galloyl glucose (synthetic), 1-O-β-galloyl glucose] | 2.4 | –
2 | O=C(/C=C/c1ccc(O)c(O)c1)OC1OC(CO)C(O)C(O)C1O [1-O-β-D-caffeyl glucose (synthetic), 1-O-β-caffeyl glucose] | – | 464
3 | O=C(/C=C/c1ccc(O)cc1)OC1OC(CO)C(O)C(O)C1O [1-O-β-D-p-coumaryl glucose (synthetic), 1-O-β-p-coumaryl glucose] | – | 350
4 | COc1ccc(C(=O)O[C@H]2O[C@H](CO)[C@@H](O)[C@H](O)[C@H]2O)cc1O [1-O-α-isovanillyl glucose (synthetic), 1-O-α-isovanillyl glucose] | Not detectable | –
5 | COc1cc(/C=C/C(=O)OC2OC(CO)C(O)C(O)C2O)ccc1O [1-O-β-D-feruloyl glucose (synthetic), 1-O-β-feruloyl glucose] | – | 1320
6 | 1-O-α-vanillyl glucose [1-O-α-vanillyl glucose (synthetic)] | 1.7 | –
7 | COc1cc(/C=C/C(=O)OC2OC(CO)C(O)C(O)C2O)cc(OC)c1O [1-O-β-D-sinapoyl glucose (synthetic), 1-O-β-sinapoyl glucose] | – | 793
8 | COc1ccc(C(=O)OC2OC(CO)C(O)C(O)C2O)cc1O (stereo not drawn) [1-O-β-isovanillyl glucose (synthetic), 1-O-β-isovanillyl glucose] | 23.1 | –
